Test results published in patent publication US9862688B2, “Hydrophobically tagged janus kinase inhibitors and uses thereof” (Dana-Farber Cancer Institute, Inc., priority 2014, dated 2018).

Key:
Ba/F3 JAK3 = assay: Ba/F3 cell proliferation analysis (CellTiter-Glo), JAK3; format: cell-based, murine; settings: Ba/F3 cells, 72 hours at 37° C., cell viability
Protocol: (§1) Cell Proliferation Analysis
(§2) CellTiter-Glo® Luminescent cell viability assay (Promega) was used to assess cell survival following treatment with the compounds described herein. Cells were seeded into 384 well plates with the EL406 Combination Washer Dispenser (BioTek Instruments, Inc.), and the compounds were injected into the cells culture media with the JANUS Automated Workstation (PerkinElmer Inc.). Cells were treated with a series diluted inhibitors (20 to 0.04 μM) for 72 hours at 37° C. Luminescent measurement is performed using the 2104 Envision® Multilabel Reader (PerkinElmer Inc.). The cell lines employed include Ba/F3 (a murine interleukin-3 dependent pro-B cell line), NKL (a Natural Killer Cell Lymphoma (NKCL) cell line), CMK (an Acute Megakaryoblastic Leukemia (AMKL) cell line).

JAK3 = JAK3 (Homo sapiens (Human), UniProt P52333); assay: INVITROGEN Select Screening in vitro kinase activity assay; format: biochemical; settings: enzymatic
JAK3, sequence (P52333 whole entry): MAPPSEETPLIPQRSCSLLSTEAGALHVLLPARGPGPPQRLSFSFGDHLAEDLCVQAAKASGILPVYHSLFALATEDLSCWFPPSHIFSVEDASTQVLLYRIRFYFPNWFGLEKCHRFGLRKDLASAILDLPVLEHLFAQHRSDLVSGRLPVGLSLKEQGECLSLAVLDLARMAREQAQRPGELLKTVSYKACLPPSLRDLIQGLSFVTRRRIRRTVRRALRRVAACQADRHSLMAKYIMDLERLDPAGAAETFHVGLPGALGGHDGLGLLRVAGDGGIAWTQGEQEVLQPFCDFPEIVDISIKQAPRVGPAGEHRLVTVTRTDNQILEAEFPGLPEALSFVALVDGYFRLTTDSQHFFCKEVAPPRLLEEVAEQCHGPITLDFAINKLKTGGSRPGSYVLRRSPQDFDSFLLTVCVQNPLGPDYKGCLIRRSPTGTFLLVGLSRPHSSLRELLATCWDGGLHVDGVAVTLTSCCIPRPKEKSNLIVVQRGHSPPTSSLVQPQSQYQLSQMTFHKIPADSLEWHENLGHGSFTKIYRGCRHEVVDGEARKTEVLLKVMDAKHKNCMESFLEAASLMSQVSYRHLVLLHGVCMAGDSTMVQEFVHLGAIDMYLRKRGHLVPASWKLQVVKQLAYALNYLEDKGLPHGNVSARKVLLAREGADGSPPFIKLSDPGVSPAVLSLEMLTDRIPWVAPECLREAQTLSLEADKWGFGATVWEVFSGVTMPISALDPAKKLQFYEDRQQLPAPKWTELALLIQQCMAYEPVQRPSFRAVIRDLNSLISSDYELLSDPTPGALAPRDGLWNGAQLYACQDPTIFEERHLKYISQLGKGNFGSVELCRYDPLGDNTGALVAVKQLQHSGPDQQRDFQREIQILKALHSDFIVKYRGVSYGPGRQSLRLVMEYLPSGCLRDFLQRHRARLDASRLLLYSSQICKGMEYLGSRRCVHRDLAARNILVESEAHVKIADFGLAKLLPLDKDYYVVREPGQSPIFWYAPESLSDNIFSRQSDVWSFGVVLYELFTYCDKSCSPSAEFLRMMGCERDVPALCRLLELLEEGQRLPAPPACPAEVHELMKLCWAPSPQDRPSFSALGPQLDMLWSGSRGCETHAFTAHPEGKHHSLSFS
From the text: The in vitro activity of the compounds described herein in inhibiting JAK3 and other kinases were obtained using an INVITROGEN Select Screening assay as known in the art.

Ba/F3 TYK2 = assay: Ba/F3 cell proliferation analysis (CellTiter-Glo), TYK2; format: cell-based, murine; settings: Mus musculus, BaF3; Ba/F3 cells, 72 hours at 37° C., cell viability
Protocol: as §1, §2

[1] = tested on: CMK (an Acute Megakaryoblastic Leukemia (AMKL) cell line); assay: Cancer cell line proliferation analysis (CellTiter-Glo), CMK; format: cell-based; settings: Homo sapiens; CMK cells, 72 hours at 37° C., cell viability; read-out: Cancer cell lines IC50 (nM) CMK
Protocol: as §1, §2

[2] = tested on: NKL (a Natural Killer Cell Lymphoma (NKCL) cell line); assay: Cancer cell line proliferation analysis (CellTiter-Glo), NKL; format: cell-based; settings: NKL cells, 72 hours at 37° C., cell viability, read-out: Cancer cell lines IC50 (nM) NKL
Protocol: as §1, §2

Ba/F3 ABL = assay: Ba/F3 cell proliferation analysis (CellTiter-Glo), ABL; format: cell-based, murine; settings: Mus musculus, Ba/F3 cells, 72 hours at 37° C., cell viability
Protocol: as §1
as §2, with “Luminescent measurement is performed using the 2104 Envision® Multilabel Reader (PerkinElmer Inc.).” left out

Ba/F3 JAK1 = assay: Ba/F3 cell proliferation analysis (CellTiter-Glo), JAK1; format: cell-based, murine; settings: Mus musculus, BaF3; Ba/F3 cells, 72 hours at 37° C., cell viability
Protocol: as §1, §2

Ba/F3 JAK2 = assay: Ba/F3 cell proliferation analysis (CellTiter-Glo), JAK2; format: cell-based, murine; settings: Mus musculus, BaF3; Ba/F3 cells, 72 hours at 37° C., cell viability
Protocol: as §1
as §2, with “Luminescent measurement is performed using the 2104 Envision® Multilabel Reader (PerkinElmer Inc.).” left out

SMILES	IC50 (Ba/F3 JAK3) [nM]	IC50 (Ba/F3 JAK3; listed as compound 2) [nM]	IC50 (JAK3) [nM]	IC50 (Ba/F3 TYK2) [nM]	IC50 [1] [nM]	IC50 (Ba/F3 JAK3; Mus musculus, BaF3, 72 h) [nM]	IC50 (Ba/F3 ABL; BaF3) [nM]	IC50 (Ba/F3 JAK1) [nM]	IC50 (Ba/F3 JAK2) [nM]	IC50 (Ba/F3 ABL; BaF3, 72 h, heading: Ba/F3 IC50 ABL) [nM]	IC50 [2] [nM]
C=CC(=O)Nc1cccc(CNc2nc(Nc3ccc(N4CCN(CCCNC(=O)CC5[C@H]6C[C@@H]7C[C@@H](C[C@H]5C7)C6)CC4)cc3OC)ncc2Cl)c1 (stereo partly shown) [Compound 2]	382	45	45	1820	273	–	–	–	–	–	193
C=CC(=O)Nc1cccc(CNc2nc(Nc3ccc(N4CCN(CCCNC(=O)CC5[C@H]6C[C@@H]7C[C@@H](C[C@H]5C7)C6)CC4)cc3)ncc2Cl)c1 (stereo partly shown) [Compound 3]	–	–	12.8	542	490	72.7	2260	1120	1220	–	–
C=CC(=O)Nc1cccc(CNc2nc(Nc3ccc(N4CCN(CCCCNC(=O)CC5[C@H]6C[C@@H]7C[C@@H](C[C@H]5C7)C6)CC4)cc3)ncc2Cl)c1 (stereo partly shown) [Compound 4]	–	–	7.95	372	38	64.8	623	252	–	–	–
C=CC(=O)Nc1cccc(CNc2nc(Nc3cnn(C4CCN(CCNC(=O)CC5[C@H]6C[C@@H]7C[C@@H](C[C@H]5C7)C6)CC4)c3)ncc2Cl)c1 (stereo partly shown) [Compound 7]	–	–	6.8	794	–	105	2280	954	1440	–	–

The next compounds have a lower IC50 (JAK3) than those just listed; values first:

IC50 (Ba/F3 JAK3) [nM]	IC50 (Ba/F3 JAK3; listed as compound 2) [nM]	IC50 (JAK3) [nM]	IC50 (Ba/F3 TYK2) [nM]	IC50 [1] [nM]	IC50 (Ba/F3 JAK3; Mus musculus, BaF3, 72 h) [nM]	IC50 (Ba/F3 ABL; BaF3) [nM]	IC50 (Ba/F3 JAK1) [nM]	IC50 (Ba/F3 JAK2) [nM]	IC50 (Ba/F3 ABL; BaF3, 72 h, heading: Ba/F3 IC50 ABL) [nM]	SMILES	IC50 [2] [nM]
–	–	5.9	–	–	38	–	2080	3180	3860	C=CC(=O)Nc1cccc(CNc2nc(Nc3cnn(C4CCN(C(=O)CC5[C@H]6C[C@@H]7C[C@@H](C[C@H]5C7)C6)CC4)c3)ncc2Cl)c1 (stereo partly shown) [Compound 6]	–
–	–	4.9	676	–	94	–	1110	–	–	C=CC(=O)Nc1cccc(CNc2nc(Nc3cnn(CCN4CCN(C(=O)CC5[C@H]6C[C@@H]7C[C@@H](C[C@H]5C7)C6)CC4)c3)ncc2Cl)c1 (stereo partly shown) [Compound 5]	–
